Data published in US9102669B2, “Substituted piperidinyl-pyridazinyl derivatives useful as SCD 1 inhibitors” (Janssen Pharmaceutica NV, priority 2011, dated 2015).
Where “and” joins values, the source holds several entries; their conditions need not be identical. Identical values can stand only once.

Assays:
SCD1 [1] = molecular target: SCD1 (Rattus norvegicus (Rat), UniProt P07308); test: SCD1 enzymatic assay in rat liver microsomes (RLM); format: biochemical; settings: rat liver microsomes; for inhibition at 1 µM / % Inh.@ 1 μM: 1 μM test compound; for inhibition at 1 µM: read-out: % Inh.@ 1 μM
Chain of SCD1 (Rattus norvegicus (Rat), UniProt P07308) (P07308 whole entry): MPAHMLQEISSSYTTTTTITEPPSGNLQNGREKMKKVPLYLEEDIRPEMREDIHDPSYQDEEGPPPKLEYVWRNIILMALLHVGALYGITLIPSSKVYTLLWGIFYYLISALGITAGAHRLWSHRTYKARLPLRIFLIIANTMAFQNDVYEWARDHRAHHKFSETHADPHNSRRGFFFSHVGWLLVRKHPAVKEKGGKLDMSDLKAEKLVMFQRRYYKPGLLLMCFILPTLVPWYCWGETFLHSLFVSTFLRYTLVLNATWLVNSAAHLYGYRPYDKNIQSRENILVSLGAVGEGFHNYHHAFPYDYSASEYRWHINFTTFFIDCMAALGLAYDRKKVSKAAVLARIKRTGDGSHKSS
Method in brief: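 Microsomes from livers of Sprague Dawley rats after fast/fat-free re-feeding cycles (10 μg per reaction) were incubated 2 h at room temperature with 20 μM stearoyl-CoA plus ^3H-stearoyl-CoA (2 μCi/mL), ATP, CoA, NADH and glutathione in 0.1 M K-phosphate, with compound. Reactions were acid-stopped and charcoal-treated; radioactivity was counted and fitted to a sigmoidal dose-response curve.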

SCD1 [2] = molecular target: T1, SCD1 (Homo sapiens (Human), UniProt O00767); test: SCD1 14C-palmitate assay in A431 cells; format: cell-based; settings: read-out: A431 cells 14C-PA IC50
T1 sequence (O00767 whole entry): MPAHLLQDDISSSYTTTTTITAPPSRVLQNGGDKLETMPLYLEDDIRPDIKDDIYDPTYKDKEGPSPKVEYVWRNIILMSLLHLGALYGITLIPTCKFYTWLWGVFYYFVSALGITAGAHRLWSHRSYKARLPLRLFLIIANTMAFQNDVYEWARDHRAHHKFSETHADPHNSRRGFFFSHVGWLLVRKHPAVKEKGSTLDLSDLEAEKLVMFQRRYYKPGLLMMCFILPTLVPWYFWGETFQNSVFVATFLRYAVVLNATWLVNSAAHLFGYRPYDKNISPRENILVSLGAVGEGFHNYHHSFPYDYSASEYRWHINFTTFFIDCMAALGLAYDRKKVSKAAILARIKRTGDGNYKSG
Experimental: Human epithelial carcinoma A431 cells were seeded at 400,000 cells per well in 48-well tissue culture plate and treated with 2 cycles of fasting in low glucose medium (DMEM, Cellgro#10-014-CV, 1 g/L glucose, 2% Charcoal Filtered FBS) for 24 hours; and re-feeding with high glucose medium for 24 hours (DMEM, Cellgro#10-013-CM, 4.5 g/L glucose, 10% Charcoal Filtered FBS and 0.05 mg/mL Lilly Humulin R, Cat.#, HI-210). Prior to running the assay, the cells were washed twice with high glucose medium (400 μL), followed by addition of 250 μL assay buffer (DMEM, 4.5 g/L glucose, 0.05 mg/mL Human Insulin, 0.1% Fatty Acid Free BSA) to each well. Then, 100 μL of assay buffer containing 20 μM Palmitic Acid, 0.05 μCi ^14C Palmitic Acid (Perkin Elmer, NEC075H) and test compound (at selected concentration) was added to each well. The cells were then Incubated at 37° C. and 5% CO2 tissue culture incubator for 4 hours, followed by extensive washes with pre-chilled PBS. The cell plates were then frozen at −20° C. overnight. After thawing out the plates, 100 μL of 1N KOH was added to each well and the plates were incubated at 37° C. for 30 mins. Cell lysates were transferred to 1 mL Eppendorf tubes and incubated at 95° C. for 1 hour, followed by addition of 10 μL formic acid and 220 μL acetonitrile. The tubes were then centrifuged at 12,000 rpm and the supernatant dried under N2 for 2-3 hours. Dried extract was re-suspended in 60 μL hexane and loaded onto TLC plates (pre-coated with 10% AgNO3 in acetonitrile). The TLC plates were placed into glass running chamber containing 200 mL running solution (100 mL running solution: 92.5 mL chloroform, 6 mL methanol, 750 μL acetic acid, 750 μL dH2O). After running, the TLC plates were air dried and scanned on Bioscan AR-2000 for quantification of ^14C-palmitioleate and ^14C-palmitate peaks. Area under the curve of the peaks were used to calculate product/substrate ratio, an index of SCD1 activity.

SCD1 [3] = molecular target: T1, SCD1; test: SCD1 13C-palmitic acid assay in A431 cells; format: cell-based; settings: read-out: A431 cells 13C-PA IC50
Method in brief: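 A431 cells with 0.05 mg/mL human insulin in 0.1% fatty-acid-free BSA assay medium; 4 h incubation at 37 °C before KOH saponification with D4-palmitate internal standard.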

SMILES: Cc1cn(-c2ccc(N3CCC(N4CCc5ccccc54)CC3)nn2)cn1 [Compound #1, 1-(1-(6-(4-methyl-1H-imidazol-1-yl)pyridazin-3-yl)piperidin-4-yl)indoline]
- inhibition at 1 µM (SCD1 [1]): 86%
- IC50 (SCD1 [1]): 76 nM
- IC50 (SCD1 [2]): 257 nM

SMILES: Cn1cc(-c2ccc(N3CCC(c4noc5ccc(F)cc45)CC3)nn2)cn1 [Compound #3, 5-fluoro-3-(1-(6-(1-methyl-1 H-pyrazol-4-yl)pyridazin-3-yl)piperidin-4-yl)benzo[d]isoxazole]
- inhibition at 1 µM (SCD1 [1]): 87%
- IC50 (SCD1 [1]): 126 nM
- IC50 (SCD1 [2]): 377 nM

SMILES: Cc1cn(-c2ccc(N3CCC(N4CCc5ccc(F)cc54)CC3)nn2)cn1 [Compound #4, 6-fluoro-1-(1-(6-(4-methyl-1H-imidazol-1-yl)pyridazin-3-yl)piperidin-4-yl)indoline]
- % Inh.@ 1 μM (SCD1 [1]): 93%
- inhibition at 1 µM (SCD1 [1]): 95%
- IC50 (SCD1 [3]): 9 nM
- IC50 (SCD1 [2]): 68 nM

SMILES: Cc1nsc(-c2ccc(N3CCC(c4noc5ccc(F)cc45)CC3)nn2)n1 [Compound #5, 5-fluoro-3-(1-(6-(3-methyl-1,2,4-thiadiazol-5-yl)pyridazin-3-yl)piperidin-4-yl)benzo[d]isoxazole]
- inhibition at 1 µM (SCD1 [1]): 89%
- IC50 (SCD1 [1]): 68 nM
- IC50 (SCD1 [2]): 139 nM

SMILES: Cc1nsc(-c2ccc(N3CCC(n4ccc5ccccc54)CC3)nn2)n1 [Compound #6, 5-(6-(4-(1H-indol-1-yl)piperidin-1-yl)pyridazin-3-yl)-3-methyl-1,2,4-thiadiazole]
- inhibition at 1 µM (SCD1 [1]): 79%
- IC50 (SCD1 [1]): 34 nM
- IC50 (SCD1 [2]): 62 nM and 102 nM

SMILES: Cc1nsc(-c2ccc(N3CCC(N4CCc5ccccc54)CC3)nn2)n1 [Compound #7, 5-(6-(4-(indolin-1-yl)piperidin-1-yl)pyridazin-3-yl)-3-methyl-1,2,4-thiadiazole]
- inhibition at 1 µM (SCD1 [1]): 95%
- IC50 (SCD1 [1]): 14 nM
- IC50 (SCD1 [2]): 24 nM

SMILES: Cn1cc(-c2ccc(N3CCC(n4ccc5ccccc54)CC3)nn2)cn1 [Compound #9, 1-(1-(6-(1-methyl-1H-pyrazol-4-yl)pyridazin-3-yl)piperidin-4-yl)-1H-indole]
- inhibition at 1 µM (SCD1 [1]): 81%
- IC50 (SCD1 [1]): 422 nM
- IC50 (SCD1 [2]): 359 nM

SMILES: Cn1cc(-c2ccc(N3CCC(N4CCc5ccccc54)CC3)nn2)cn1 [Compound #10, 1-(1-(6-(1-methyl-1H-pyrazol-4-yl)pyridazin-3-yl)piperidin-4-yl)indoline]
- inhibition at 1 µM (SCD1 [1]): 84%
- IC50 (SCD1 [1]): 394 nM
- IC50 (SCD1 [2]): 383 nM

SMILES: Cc1nsc(-c2ccc(N3CCC(N4CCc5ccc(F)cc54)CC3)nn2)n1 [Compound #12, 5-(6-(4-(6-fluoroindolin-1-yl)piperidin-1-yl)pyridazin-3-yl)-3-methyl-1,2,4-thiadiazole]
- % Inh.@ 1 μM (SCD1 [1]): 97%
- inhibition at 1 µM (SCD1 [1]): 95%
- IC50 (SCD1 [1]): 11 nM
- IC50 (SCD1 [2]): 362 nM

SMILES: NNC(=O)c1ccc(N2CCC(c3noc4ccc(F)cc34)CC2)nn1 [Compound I1, 6-(4-(5-fluorobenzo[d]isoxazol-3-yl)piperidin-1-yl)pyridazine-3-carbohydrazide]
- inhibition at 1 µM (SCD1 [1]): 100%
- IC50 (SCD1 [1]): 59 nM
- IC50 (SCD1 [3]): > 3000 nM
- IC50 (SCD1 [2]): 3060 nM

SMILES: Fc1ccc2onc(C3CCN(c4ccc(-c5cccnc5)nn4)CC3)c2c1 [compound 8, 5-fluoro-3-(1-(6-(pyridin-3-yl)pyridazin-3-yl)piperidin-4-yl)benzo[d]isoxazote]
- inhibition at 1 µM (SCD1 [1]): 86%
- IC50 (SCD1 [1]): 165 nM
- IC50 (SCD1 [2]): 577 nM

SMILES: Fc1ccc2c(c1)N(C1CCN(c3ccc(-c4cn[nH]c4)nn3)CC1)CC2 [compound 77, 1-(1-(6-(1H-pyrazol-4-yl)pyridazin-3-yl)piperidin-4-yl)-6-fluoroindoline]
- inhibition at 1 µM (SCD1 [1]): 95%
- IC50 (SCD1 [1]): 21 nM
- IC50 (SCD1 [3]): 20 nM

SMILES: Cn1cc(-c2ccc(N3CCC(n4ncc5c(C(F)(F)F)cccc54)CC3)nn2)cn1 [compound 80, 1-(1-(6-(1-methyl-1H-pyrazol-4-yl)pyridazin-3-yl)piperidin-4-yl)-4-(trifluoromethyl)-1H-indazole]
- inhibition at 1 µM (SCD1 [1]): 74%
- IC50 (SCD1 [1]): 52 nM
- IC50 (SCD1 [3]): 731 nM

SMILES: Cn1cc(-c2ccc(N3CCC(n4ncc5ccc(C(F)(F)F)cc54)CC3)nn2)cn1 [compound 81, 1-(1-(6-(1-methyl-1H-pyrazol-4-yl)pyridazin-3-yl)piperidin-4-yl)-6-(trifluoromethyl)-1H-indazole]
- inhibition at 1 µM (SCD1 [1]): 96%
- IC50 (SCD1 [1]): 8 nM
- IC50 (SCD1 [3]): 15 nM

SMILES: OCCn1cc(-c2ccc(N3CCC(n4ncc5ccc(F)cc54)CC3)nn2)cn1 [compound 82, 2-(4-(6-(4-(6-fluoro-1H-indazo-1-yl)piperidin-1-yl)pyridazin-3-yl)-1H-pyrazol-1-yl)ethanol]
- inhibition at 1 µM (SCD1 [1]): 99%
- IC50 (SCD1 [1]): 53 nM
- IC50 (SCD1 [3]): 96 nM

SMILES: Cn1cc(-c2ccc(N3CCC(n4nc(Cl)c5ccccc54)CC3)nn2)cn1 [compound 83, 3-chloro-1-(1-(6-(1-methyl-1H-pyrazol-4-yl)pyridazin-3-yl)piperidin-4-yl)-1H-indazole]
- inhibition at 1 µM (SCD1 [1]): 102%
- IC50 (SCD1 [1]): 6 nM
- IC50 (SCD1 [3]): 11 nM

SMILES: Fc1ccc2onc(C3CCN(c4ccc(-n5ccnc5)nn4)CC3)c2c1 [compound 84, 3-(1-(6-(1H-imidazol-1-yl)pyridazin-3-yl)piperidin-4-yl)-5-fluorobenzo[d]isoxazole]
- inhibition at 1 µM (SCD1 [1]): 85%
- IC50 (SCD1 [1]): 156 nM
- IC50 (SCD1 [2]): 157 nM

SMILES: Cc1cn(-c2ccc(N3CCC(c4noc5ccc(F)cc45)CC3)nn2)cn1 [compound 85, 5-fluoro-3-(1-(6-(4-methyl-1H-imidazol-1-yl)pyridazin-3-yl)piperidin-4-yl)benzo[d]isoxazole]
- inhibition at 1 µM (SCD1 [1]): 97%
- IC50 (SCD1 [1]): 65 nM
- IC50 (SCD1 [2]): 148 nM

SMILES: Cc1cn(-c2ccc(N3CCC(n4ccc5ccccc54)CC3)nn2)cn1 [compound 88, 1-(1-(6-(4-methyl-1H-imidazol-1-yl)pyridazin-3-yl)piperidin-4-yl)-1H-indole]
- inhibition at 1 µM (SCD1 [1]): 84%
- IC50 (SCD1 [1]): 86 nM
- IC50 (SCD1 [2]): 116 nM

SMILES: Cc1cn(-c2ccc(N3CCC(c4noc5cc(F)ccc45)CC3)nn2)cn1 [compound 89, 6-fluoro-3-(1-(6-(4-methyl-1H-imidazol-1-yl)pyridazin-3-yl)piperidin-4-yl)benzo[d]isoxazole]
- inhibition at 1 µM (SCD1 [1]): 88%
- IC50 (SCD1 [1]): 257 nM
- IC50 (SCD1 [2]): 691 nM

SMILES: Cc1ccn(-c2ccc(N3CCC(c4noc5ccc(F)cc45)CC3)nn2)n1 [compound 92, 5-fluoro-3-(1-(6-(3-methyl-1H-pyrazol-1-yl)pyridazin-3-yl)piperidin-4-yl)benzo[d]isoxazole]
- inhibition at 1 µM (SCD1 [1]): 79%
- IC50 (SCD1 [1]): 126 nM
- IC50 (SCD1 [2]): 63 nM

SMILES: Cc1cnn(-c2ccc(N3CCC(c4noc5ccc(F)cc45)CC3)nn2)c1 [compound 94, 5-fluoro-3-(1-(6-(4-methyl-1H-pyrazol-1-yl)pyridazin-3-yl)piperidin-4-yl)benzo[d]isoxazote]
- inhibition at 1 µM (SCD1 [1]): 96%
- IC50 (SCD1 [1]): 12 nM
- IC50 (SCD1 [3]): 40 nM

SMILES: OCc1cnn(-c2ccc(N3CCC(c4noc5ccc(F)cc45)CC3)nn2)c1 [compound 95, (1-(6-(4-(5-fluorobenzo[d]isoxazol-3-yl)piperidin-1-yl)pyridazin-3-yl)-1H-pyrazol-4-yl)methanol]
- inhibition at 1 µM (SCD1 [1]): 88%
- IC50 (SCD1 [1]): 96 nM
- IC50 (SCD1 [3]): 62 nM

SMILES: COCc1cnn(-c2ccc(N3CCC(c4noc5ccc(F)cc45)CC3)nn2)c1 [compound 96, 5-fluoro-3-(1-(6-(4-(methoxymethyl)-1H-pyrazol-1-yl)pyridazin-3-yl)piperidin-4-yl)benzo[d]isoxazole]
- inhibition at 1 µM (SCD1 [1]): 98%
- IC50 (SCD1 [1]): 8 nM
- IC50 (SCD1 [3]): 22 nM

SMILES: CNCc1cnn(-c2ccc(N3CCC(c4noc5ccc(F)cc45)CC3)nn2)c1 [compound 97, 1-(1-(6-(4-(5-fluorobenzo[d]isoxazol-3-yl)piperidin-1-yl)pyridazin-3-yl)-1H-pyrazol-4-yl)-N-methylmethanamine]
- inhibition at 1 µM (SCD1 [1]): 11%
- IC50 (SCD1 [3]): > 1000 nM

SMILES: OCCc1cnn(-c2ccc(N3CCC(c4noc5ccc(F)cc45)CC3)nn2)c1 [compound 98, 2-(1-(6-(4-(5-fluorobenzo[d]isoxazol-3-yl)piperidin-1-yl)pyridazin-3-yl)-1H-pyrazol-4-yl)ethanol]
- inhibition at 1 µM (SCD1 [1]): 88%
- IC50 (SCD1 [1]): 60 nM
- IC50 (SCD1 [3]): 12 nM
